From ChEMBL document CHEMBL1135367, “Evaluation of isotryptamine derivatives at 5-HT(2) serotonin receptors” (Bioorg Med Chem Lett, 2002)

Assays:
[1] = target: T1, 5-hydroxytryptamine receptor 2A (Homo sapiens, UniProt P28223); experiment: Displacement of [3H]DOB from human 5-hydroxytryptamine 2A receptor
[2] = target: T2, 5-hydroxytryptamine receptor 2C (Homo sapiens, UniProt P28335); experiment: Binding affinity towards human 5-hydroxytryptamine 2C receptor.
T2 sequence (P28335 whole entry): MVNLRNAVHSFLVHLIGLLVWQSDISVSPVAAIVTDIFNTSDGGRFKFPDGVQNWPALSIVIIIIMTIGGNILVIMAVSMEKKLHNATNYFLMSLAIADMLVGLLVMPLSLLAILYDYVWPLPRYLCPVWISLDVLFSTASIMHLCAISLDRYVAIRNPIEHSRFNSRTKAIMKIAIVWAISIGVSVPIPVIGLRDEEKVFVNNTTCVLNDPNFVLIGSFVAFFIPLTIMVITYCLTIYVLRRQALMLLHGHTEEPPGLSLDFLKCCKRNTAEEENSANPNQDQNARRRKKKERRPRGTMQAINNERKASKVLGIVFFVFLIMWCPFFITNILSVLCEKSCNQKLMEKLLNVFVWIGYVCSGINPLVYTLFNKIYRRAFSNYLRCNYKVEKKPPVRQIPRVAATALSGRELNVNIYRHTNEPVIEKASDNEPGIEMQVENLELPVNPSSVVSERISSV

[3] = target: Serotonin 2 receptors; 5-HT2a & 5-HT2c (Homo sapiens) (UniProt P28223+P28335); experiment: Relative affinity for human 5-HT2C and 5-HT2A receptors; format: protein assay
[4] = target: T1, 5-hydroxytryptamine receptor 2A; experiment: Displacement of [3H]ketanserin from human 5-hydroxytryptamine 2A receptor
[5] = target: T1, 5-hydroxytryptamine receptor 2A; experiment: Tested for binding affinity towards 5-hydroxytryptamine 2A receptor
[6] = target: T2, 5-hydroxytryptamine receptor 2C; experiment: Tested for binding affinity towards 5-HT2c receptor
[7] = target: T2, 5-hydroxytryptamine receptor 2C; experiment: Tested for binding affinity towards human 5-hydroxytryptamine 2C receptor using [3H]DOB as radioligand
[8] = target: T2, 5-hydroxytryptamine receptor 2C; experiment: Tested for binding affinity towards human 5-hydroxytryptamine 2C receptor using [3H]mesulergine as radioligand
[9] = target: T3, 5-hydroxytryptamine receptor 2A (Rattus norvegicus, UniProt P14842); experiment: Tested for binding affinity towards rat 5-hydroxytryptamine 2A receptor using [3H]DOB as radioligand
[10] = target: T1, 5-hydroxytryptamine receptor 2A; experiment: Tested for binding affinity towards human 5-hydroxytryptamine 2A receptor using [3H]5-HT as radioligand
[11] = target: T3, 5-hydroxytryptamine receptor 2A; experiment: Tested for binding affinity towards rat 5-hydroxytryptamine 2A receptor using [3H]ketanserin as radioligand
[12] = target: T1, 5-hydroxytryptamine receptor 2A; experiment: Tested for binding affinity towards human 5-hydroxytryptamine 2A receptor using [3H]DOB as radioligand
[13] = target: T2, 5-hydroxytryptamine receptor 2C; experiment: Tested for binding affinity towards human 5-hydroxytryptamine 2C receptor using [3H]5-HT as radioligand

Serotonin 2 receptors; 5-HT2a & 5-HT2c (Homo sapiens), sequence (P28223 whole entry, looked up, one chain of several): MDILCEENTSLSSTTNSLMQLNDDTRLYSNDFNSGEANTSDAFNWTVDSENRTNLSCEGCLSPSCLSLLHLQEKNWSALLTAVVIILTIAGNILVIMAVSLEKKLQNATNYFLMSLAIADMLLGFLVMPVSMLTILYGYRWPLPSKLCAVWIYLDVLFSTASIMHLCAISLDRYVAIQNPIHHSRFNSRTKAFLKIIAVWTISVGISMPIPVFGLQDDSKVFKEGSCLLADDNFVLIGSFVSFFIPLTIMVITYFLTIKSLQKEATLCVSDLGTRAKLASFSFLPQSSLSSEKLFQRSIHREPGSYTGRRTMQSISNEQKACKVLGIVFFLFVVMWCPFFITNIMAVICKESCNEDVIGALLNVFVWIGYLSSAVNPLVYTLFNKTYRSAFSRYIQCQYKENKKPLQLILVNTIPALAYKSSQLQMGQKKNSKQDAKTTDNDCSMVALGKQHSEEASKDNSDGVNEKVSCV
T1 sequence (P28223 whole entry): as the sequence (P28223 whole entry, looked up, one chain of several) above
T3 sequence (P14842 whole entry): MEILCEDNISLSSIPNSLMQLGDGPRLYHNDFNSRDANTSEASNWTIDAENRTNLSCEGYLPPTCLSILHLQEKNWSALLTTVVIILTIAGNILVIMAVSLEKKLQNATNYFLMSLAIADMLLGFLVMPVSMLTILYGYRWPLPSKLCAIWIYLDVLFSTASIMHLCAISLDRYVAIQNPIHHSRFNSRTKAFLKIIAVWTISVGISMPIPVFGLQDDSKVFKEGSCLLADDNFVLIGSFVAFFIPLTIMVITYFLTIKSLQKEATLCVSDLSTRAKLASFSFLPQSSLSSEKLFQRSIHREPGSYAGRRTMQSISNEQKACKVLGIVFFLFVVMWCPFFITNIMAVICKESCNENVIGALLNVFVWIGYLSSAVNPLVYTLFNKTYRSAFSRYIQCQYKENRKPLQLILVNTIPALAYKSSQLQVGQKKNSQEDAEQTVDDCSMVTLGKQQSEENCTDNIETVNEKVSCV

Row | Compound | Ki [1] | Ki [2] | Selectivity [3] | Ki [4] | other results
1 | Clc1ccc2cc3n(c2c1)CCNC3 | 80 nM | 560 nM | 7 | 58 nM | 
2 | COc1ccc2c(c1)cc1n2CCNC1 | 930 nM | 9930 nM | 10.7 | 5830 nM | 
3 | Clc1cccc2cc3n(c12)CCNC3 | 330 nM | 520 nM | 1.6 | 630 nM | 
4 | CN(C)CCn1ccc2cc(F)c(F)cc21 | 230 nM | 300 nM | 1.3 | 640 nM | 
5 | c1ccc2c(c1)nc1n2CCNC1 | > 10000 nM | > 10000 nM |  | > 10000 nM | 
6 | COc1cccc2cc3n(c12)CCNC3 | 300 nM | 1990 nM | 6.6 | 1000 nM | 
7 | Clc1ccc2c(c1)cc1n2CCNC1 | 320 nM | 1460 nM | 4.6 | 1670 nM | 
8 | CC(N)Cc1c[nH]c2ccc3ccccc3c12 (stereo not given) |  | 9 nM |  |  | Ki [5]: 3 nM
9 | COc1c2n(c3ccc(Cl)cc13)CCNC2 | 60 nM | 330 nM | 5.5 | 130 nM | 
10 | COc1ccc2c(ccn2CCN(C)C)c1 | > 10000 nM | > 10000 nM |  | > 10000 nM | 
11 | CC(N)Cn1ccc2ccc3ccccc3c21 (stereo not given) |  | 42 nM |  |  | Ki [5]: 38 nM
12 | c1ccc2c(c1)cc1n2CCNC1 | 635 nM | 4780 nM | 7.5 | 1040 nM | 
13 | CC(CN)n1ccc2ccc3ccccc3c21 (stereo not given) |  | > 10000 nM |  |  | Ki [5]: 4300 nM
14 | CN(C)CCn1ccc2ccccc21 | 650 nM | 720 nM | 1.1 | 600 nM | 
15 | Cc1c2n(c3ccc(Cl)cc13)CCNC2 |  |  |  | 1250 nM | Ki [6]: 450 nM
16 | COc1ccc2cc3n(c2c1)CCNC3 | 1300 nM | 5160 nM | 4 | 5190 nM | 
17 | COc1ccc2ccn(CCN(C)C)c2c1 |  | 490 nM |  | 1040 nM | 
18 | C[C@H](N)Cn1ccc2cc(F)c(F)cc21 |  | 85 nM | 5.7 |  | Ki [7]: 3.9 nM; Ki [8]: 85 nM; Ki [9]: 15 nM; Ki [10]: 12 nM; Ki [11]: 320 nM; Ki [12]: 39 nM; Ki [13]: 3.8 nM
